Measured values as given in article PMC7195552 (Journal of Burn Care & Research: Official Publication of …, 2020).
Like-named read-outs stand apart in the source and are kept apart here.

Legend:
[1] = Plasma pharmacokinetics of daptomycin in patients with severe burn injuries (LC-MS/MS, DAS 2.0); assay type: in vivo, human; settings: for half-life: read-out: t(h)½ (converted)
Description: Multiple-dose medication treatment means that daptomycin was administered to burn injury patients as one injection every day of either the standard dose or a high dose. […] During intravenous infusion, vigorous agitation or shaking during drug dissolution was not permitted, thus preventing the formation of gas bubbles. […] The samples were centrifuged and stored at −80°C until required for analysis. PK evaluation was performed by measuring the daptomycin levels in blood samples, using liquid chromatography–mass spectrometry/mass spectrometry (LC-MS/MS) (Waters Micromass Quattro Micro API LC-MS/MS). Chromatographic separation was performed at 35°C using a RP-C18 (Welch Ultimate, 3.0 mm × 150 mm) analytical column. […] PK parameters were calculated using DAS 2.0. […] The maximum plasma concentration (Cmax) and the time at which it occurred (Tmax) were determined directly from the measured plasma concentration–time without interpolation. […] The total body clearance (CL) was obtained from dose/AUC0–∞. The volume of distribution (Vd) was calculated using the equation CL/Ke.

[2] = Hepatorenal function index of patients after daptomycin medication; settings: 12 mg/kg/d, average ± SD n = 7, patients received supplemental plasma albumin
Description: All statistical analyses were conducted using SAS™ 9.3 software (Cary, NC) and a P value <.05 was considered to be statistically significant.

[3] = Creatine phosphokinase levels and adverse events during daptomycin treatment; assay type: in vivo, human
Source text: The level returned to a normal value without discontinuation of daptomycin treatment. There were no significant CPK differences in the indicated time points between the groups (Table 8).

[4] = patient 1, 12 mg/kg/d iv, multiple dose
[5] = patient 1, 12 mg/kg/d iv, single dose
[6] = patient 2, 12 mg/kg/d iv, multiple dose
[7] = patient 2, 12 mg/kg/d iv, single dose
[8] = patient 3, 12 mg/kg/d iv, multiple dose
[9] = patient 3, 12 mg/kg/d iv, single dose
[10] = patient 4, 12 mg/kg/d iv, multiple dose
[11] = patient 4, 12 mg/kg/d iv, single dose
[12] = patient 5, 12 mg/kg/d iv, multiple dose
[13] = patient 5, 12 mg/kg/d iv, single dose
[14] = patient 6, 12 mg/kg/d iv, multiple dose
[15] = patient 6, 12 mg/kg/d iv, single dose
[16] = patient 7, 12 mg/kg/d iv, multiple dose
[17] = patient 7, 12 mg/kg/d iv, single dose
[18] = patient 8, 6 mg/kg/d iv, multiple dose
[19] = patient 8, 6 mg/kg/d iv, single dose
[20] = patient 9, 6 mg/kg/d iv, multiple dose
[21] = patient 9, 6 mg/kg/d iv, single dose
[22] = patient 10, 6 mg/kg/d iv, multiple dose
[23] = patient 10, 6 mg/kg/d iv, single dose

## CCCCCCCCCC(=O)N[C@@H](Cc1c[nH]c2ccccc12)C(=O)N[C@H](CC(N)=O)C(=O)N[C@@H](CC(=O)O)C(=O)N[C@@H]1C(=O)NCC(=O)N[C@@H](CCCN)C(=O)N[C@@H](CC(=O)O)C(=O)N[C@H](C)C(=O)N[C@@H](CC(=O)O)C(=O)NCC(=O)N[C@H](CO)C(=O)N[C@@H]([C@H](C)CC(=O)O)C(=O)N[C@@H](CC(=O)c2ccccc2N)C(=O)O[C@@H]1C [daptomycin]
[1]; 6 mg/kg/d iv, multiple dose (day 6), average ± SD n = 3, SD
  CL: 0.412 ± 0.197 mL/min/kg
[1]; 12 mg/kg/d iv, multiple dose (day 6), average ± SD n = 7, SD
  V d: 0.24 ± 0.11 L/kg
[1]; human, in vivo, iv, 6 mg/kg
  Tmax: ~2 h
[1]; human, in vivo, iv, 6 mg/kg/d, 6 mg/kg/d iv, multiple dose (day 6), average ± SD n = 3, SD
  half-life: 6.47 ± 1.34 h
[1]; human, in vivo, iv, 6 mg/kg/d, 6 mg/kg/d iv, single dose, average ± SD n = 3, SD
  half-life: 5.64 ± 1 h
[1]; human, in vivo, iv, 12 mg/kg/d, 12 mg/kg/d iv, single dose, average ± SD n = 7, SD, read-out: CL (converted)
  clearance: 0.375 mL/min/kg
[1]; human, in vivo, iv, 12 mg/kg/d, 12 mg/kg/d iv, single dose, average ± SD n = 7, SD
  half-life: 7.4 ± 2.5 h
[1]; human, in vivo, iv, V d, SD
  V d: 0.24 ± 0.1 L/kg
[1]; human, in vivo, iv, SD
  V d: 0.19 ± 0.1 L/kg
  clearance: 0.403 mL/min/kg
[1]; human, in vivo, 6 mg/kg/d iv, single dose, average ± SD n = 3, SD, read-out: AUC0–24
  AUC(0-t): 255 ± 51.6 µg·h/mL
[1]; human, in vivo, 12 mg/kg/d iv, multiple dose (day 6), average ± SD n = 7, SD, read-out: CL (converted)
  clearance: 0.33 mL/min/kg
[1]; multiple doses, independent of the dose received (all patients)
  t(h)½: 8.10 ± 1.91 h
[1]; [4]
  AUC0–24: 588.2 µg·h/mL
  CL: 0.34 mL/min/kg
  V d: 0.26 L/kg
  t(h)½: 8.8 h
[1]; [5]
  AUC0–24: 486.9 µg·h/mL
  CL: 0.365 mL/min/kg
  V d: 0.26 L/kg
[1]; [6]
  AUC0–24: 679.0 µg·h/mL
  CL: 0.2945 mL/min/kg
  V d: 0.22 L/kg
  t(h)½: 8.5 h
[1]; [7]
  AUC0–24: 511.2 µg·h/mL
  CL: 0.36 mL/min/kg
  V d: 0.21 L/kg
  t(h)½: 0.5 h
[1]; [8]
  AUC0–24: 580.7 µg·h/mL
  CL: 0.3443 mL/min/kg
  V d: 0.20 L/kg
  t(h)½: 6.7 h
[1]; [9]
  AUC0–24: 426.7 µg·h/mL
  CL: 0.423 mL/min/kg
  V d: 0.25 L/kg
  t(h)½: 0.5 h
[1]; [10]
  AUC0–24: 709.6 µg·h/mL
  CL: 0.2818 mL/min/kg
  V d: 0.16 L/kg
  t(h)½: 6.6 h
[1]; [11]
  AUC0–24: 477.6 µg·h/mL
  CL: 0.388 mL/min/kg
  V d: 0.29 L/kg
  t(h)½: 0.5 h
[1]; [12]
  AUC0–24: 987.6 µg·h/mL
  CL: 0.2025 mL/min/kg
  V d: 0.10 L/kg
  t(h)½: 5.7 h
[1]; [13]
  AUC0–24: 809.9 µg·h/mL
  CL: 0.235 mL/min/kg
  V d: 0.10 L/kg
  t(h)½: 1.5 h
[1]; [14]
  AUC0–24: 489.1 µg·h/mL
  CL: 0.4088 mL/min/kg
  V d: 0.32 L/kg
  t(h)½: 9.1 h
[1]; [15]
  AUC0–24: 439.4 µg·h/mL
  CL: 0.445 mL/min/kg
  V d: 0.15 L/kg
  t(h)½: 0.5 h
[1]; [16]
  AUC0–24: 456.2 µg·h/mL
  CL: 0.4383 mL/min/kg
  V d: 0.43 L/kg
  t(h)½: 11.3 h
[1]; [17]
  AUC0–24: 399.0 µg·h/mL
  CL: 0.405 mL/min/kg
  V d: 0.41 L/kg
  t(h)½: 0.5 h
[1]; [18]
  AUC0–24: 394.7 µg·h/mL
  CL: 0.2928 mL/min/kg
  V d: 0.15 L/kg
  t(h)½: 6.093 h
[1]; [19]
  AUC0–24: 273.7 µg·h/mL
  CL: 0.3653 mL/min/kg
  V d: 0.14 L/kg
  t(h)½: 4.97 h
[1]; [20]
  AUC0–24: 249.5 µg·h/mL
  CL: 0.6387 mL/min/kg
  V d: 0.44 L/kg
  t(h)½: 7.958 h
[1]; [21]
  AUC0–24: 197.0 µg·h/mL
  CL: 0.5075 mL/min/kg
  V d: 0.27 L/kg
  t(h)½: 6.737 h
[1]; [22]
  AUC0–24: 330.3 µg·h/mL
  CL: 0.3027 mL/min/kg
  V d: 0.14 L/kg
  t(h)½: 5.349 h
[1]; [23]
  AUC0–24: 295.2 µg·h/mL
  CL: 0.3387 mL/min/kg
  V d: 0.15 L/kg
  t(h)½: 5.377 h
[2]
  Alb after daptomycin treatment (7 days): 40.5 ± 4.6 g/L
[3]; 12 mg/kg/d iv once daily, entire study period
  serious adverse events or treatment discontinuations: no serious adverse events or treatment discontinuations
[3]; patient no. 3, high-dose, day 3, returned to normal without discontinuation
  CPK adverse reaction: transient increase of CPK
[3]; whole study, 6 or 12 mg/kg/d for 7 to 14 days, 10 patients
  serious adverse events and nonserious AEs leading to discontinuation: No serious adverse events
